In patent US20150118267A1, “METHOD OF USING THEAFLAVIN” (priority 2013, published 2015):

What was measured:
Assay type in all cases: in vivo, mice
[1] = Mouse body weight after 30-day theaflavin feeding; settings: for BW change: mice, n=10, 30 days
Experimental: (§1) Female mice (Kuengming, China) weighing 18-22 g were used. The animals were housed in individual stainless steel cages in an air-conditioned room under a 12:12 hour light:dark cycle. A commercial pellet diet and water were provided throughout the experiment. All procedures were conducted in accordance with the P.R. China legislation under No. 8910M047 on the use and care of laboratory animals.
(§2) For each study, forty mice were divided into 4 groups with 10 mice per group (n=10). These four groups were control, theaflavin (low), theaflavin (mid), and theaflavin (high). The latter three were theaflavin-treated groups in which theaflavin (capsule, Xiayie™, prepared according to the method described in U.S. Pat. […] Water was fed for the control group. For the organ weight study, animals were sacrificed after the 30-day study, followed by collecting spleens and thymus for weight measurement. For the other studies, animals were harvested for further analyses as described below. Statistical differences between groups were calculated using SPSS 11.0 with student t test plus Dunnett method.

[2] = Weights of immune-related organs (spleen, thymus) after 30-day feeding; settings: for Spleen Weight change / Thymus Weight change: mice, n=10, 30 days
Experimental: as §1, §2

[3] = test system: Delayed-type hypersensitivity (DTH) induced by sheep red blood cell (SRBC); assay: Mouse footpad swelling assay (DTH); settings: for Footpad swelling: 24 hours after second SRBC injection, n=10
Experimental: For each study, forty mice were divided into 4 groups with 10 mice per group (n=10). These four groups were control, theaflavin (low), theaflavin (mid), and theaflavin (high). The latter three were theaflavin-treated groups in which theaflavin (capsule, Xiayie™, prepared according to the method described in U.S. Pat. […] […] […] […] Statistical differences between groups were calculated using SPSS 11.0 with student t test plus Dunnett method.
Delayed-type hypersensitivity (DTH) is an immune reaction induced by antigen. In the mice footpads at which DTH was elicited, transient swellings which usually peaked at 24-48 hours after the antigen challenge was observed. This assay of measuring footpad swelling of mice caused by a DTH reaction was used to test effects of theaflavin is on immune responses.
The Sheep red blood cell (SRBC) was taken from sheep and washed triple with physiological saline, centrifugated at 1500 g for 10 min, and adjusted to a final concentration of 2%. Each mouse was given a single injection of 0.2 ml of prepared 2% SRBC. On day 4 after the SRBC injection, each mouse was given an […] injection (the second injection) of 0.02 ml of prepared 20% SRBC. Mouse footpad thicknesses were measured before and 24 hours after the second injection. Mouse footpad swelling values were calculated from the difference between these two measurements.

[4] = test system: Sheep red blood cell (SRBC); assay: Mouse plasma hemolysin assay; settings: for Antibody integrand: plasma on day 5 after SRBC injection, n=10
Experimental: For each study, forty mice were divided into 4 groups with 10 mice per group (n=10). These four groups were control, theaflavin (low), theaflavin (mid), and theaflavin (high). The latter three were theaflavin-treated groups in which theaflavin (capsule, Xiayie™, prepared according to the method described in U.S. Pat. No. 8,282,970) was fed to mice at a dose of 83 mg, 250 mg, and 500 mg per kg body weight per day for 30 days for the low, mid, and high group, respectively. Water was fed for the control group. For the organ weight study, animals were sacrificed after the 30-day study, followed by collecting spleens and thymus for weight measurement. For the other studies, animals were harvested for further analyses as described below. Statistical differences between groups were calculated using SPSS 11.0 with student t test plus Dunnett method.
Each mouse was given a single injection of 0.2 ml of 2% SRBC from the above-described preparation. On day 5 after the SRBC injection, the plasma was collected by centrifuging the mouse eye blood at 2000 r/min for 10 min, then was stored into a sterile tube. With a micro hemagglutinin-assay plate, the plasma was diluted to a series of concentrations, then […] of 0.5% SRBC suspension was added. The contents were is mixed by vortexing and incubated for 3 h in a 37° C., 5% CO2 incubator, after which the hemagglutination was observed under microscope. The data were presented as antibody integrand.

[5] = theaflavin treatment for 30 days, compared to control

Molecule O=c1c(O)cc([C@H]2Oc3cc(O)cc(O)c3C[C@H]2O)cc2c([C@H]3Oc4cc(O)cc(O)c4C[C@H]3O)cc(O)c(O)c12 [Theaflavin, theaflavin] has a BW change ([1]; study I, 167 mg/kg.BW (Low)) of 12.70 ± 0.82 g, a BW change ([1]; study I, 333 mg/kg.BW (Mid)) of 12.80 ± 0.79 g and a BW change ([1]; study I, 500 mg/kg.BW (High)) of 12.50 ± 0.71 g. The BW change ([1]; study II, 167 mg/kg.BW (Low)) was 12.00 ± 0.67 g, the BW change ([1]; study II, 333 mg/kg.BW (Mid)) was 11.80 ± 0.63 g and the BW change ([1]; study II, 500 mg/kg.BW (High)) was 12.70 ± 0.92 g. It also gave a BW change ([1]; study III, 167 mg/kg.BW (Low)) of 11.90 ± 0.88 g, a BW change ([1]; study III, 333 mg/kg.BW (Mid)) of 12.80 ± 0.63 g and a BW change ([1]; study III, 500 mg/kg.BW (High)) of 11.90 ± 0.57 g. The BW change ([1]; study IV, 167 mg/kg.BW (Low)) was 13.00 ± 0.94 g, the BW change ([1]; study IV, 333 mg/kg.BW (Mid)) was 11.90 ± 0.77 g and the BW change ([1]; study IV, 500 mg/kg.BW (High)) was 12.00 ± 0.47 g. The “effect on mice body weights” value [1, 5] was “no effect”, the “Spleen Weight change” value ([2]; 167 mg/kg.BW (Low)) was 0.47 ± 0.13% and the “Thymus Weight change” value ([2]; 167 mg/kg.BW (Low)) was 0.42 ± 0.07%. The “Spleen Weight change” value ([2]; 333 mg/kg.BW (Mid)) was 0.46 ± 0.10%, the “Thymus Weight change” value ([2]; 333 mg/kg.BW (Mid)) was 0.43 ± 0.12% and the “Spleen Weight change” value ([2]; 500 mg/kg.BW (High)) was 0.45 ± 0.07%. For the same molecule, the “Thymus Weight change” value ([2]; 500 mg/kg.BW (High)) was 0.42 ± 0.11%, the “effect on weights of immune system related organs, i.e., spleen and thymus” value [2, 5] was “no effect” and the Footpad swelling ([3]; 167 mg/kg.BW (Low)) was 1.46 ± 0.39 mm. For the same molecule, the Footpad swelling ([3]; 333 mg/kg.BW (Mid)) was 1.24 ± 0.24 mm, the Footpad swelling ([3]; 500 mg/kg.BW (High)) was 1.53 ± 0.49 mm and the “mouse footpad swelling compared to control” value ([3]; theaflavin low and high groups) was “statistically significant mouse footpad swelling”. The Antibody integrand ([4]; 167 mg/kg.BW (Low)) was 143.80 ± 35.23, the Antibody integrand ([4]; 333 mg/kg.BW (Mid)) was 123.20 ± 20.37 and the Antibody integrand ([4]; 500 mg/kg.BW (High)) was 146.40 ± 26.46. For the same molecule, the “mouse plasma hemolysin assay result compared to control” value ([4]; theaflavin low and high groups) was “statistically significant results”.
